In the assay the target is Lethal factor protease (Bacillus anthracis, UniProt P15917). Kind of assay: biochemical.

The pKi is −log10 of the Ki, conventionally taken in molar units.

pKi: −log10 of the molar value.

Lethal factor protease, sequence (P15917 34-809 limits assumed): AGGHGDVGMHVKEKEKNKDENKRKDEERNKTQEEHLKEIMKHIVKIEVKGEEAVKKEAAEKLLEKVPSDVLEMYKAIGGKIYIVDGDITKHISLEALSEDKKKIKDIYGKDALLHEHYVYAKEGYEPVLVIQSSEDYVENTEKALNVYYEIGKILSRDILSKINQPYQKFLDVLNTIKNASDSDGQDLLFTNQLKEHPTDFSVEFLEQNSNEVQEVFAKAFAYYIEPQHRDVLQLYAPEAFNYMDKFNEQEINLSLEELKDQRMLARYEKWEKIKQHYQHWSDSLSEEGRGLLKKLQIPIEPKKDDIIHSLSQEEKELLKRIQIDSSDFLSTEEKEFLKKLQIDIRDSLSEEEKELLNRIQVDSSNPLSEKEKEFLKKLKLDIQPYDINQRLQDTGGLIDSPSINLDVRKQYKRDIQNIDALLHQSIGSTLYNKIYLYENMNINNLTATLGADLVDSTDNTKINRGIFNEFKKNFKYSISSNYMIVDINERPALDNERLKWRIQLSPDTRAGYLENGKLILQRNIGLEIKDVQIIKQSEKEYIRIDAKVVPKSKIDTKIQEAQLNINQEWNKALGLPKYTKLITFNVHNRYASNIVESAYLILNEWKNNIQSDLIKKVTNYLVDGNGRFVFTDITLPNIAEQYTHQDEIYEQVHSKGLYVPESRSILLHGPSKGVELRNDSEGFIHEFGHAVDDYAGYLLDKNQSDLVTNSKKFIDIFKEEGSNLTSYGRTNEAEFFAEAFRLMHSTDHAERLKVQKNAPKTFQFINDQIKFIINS

In turn, `Cc1cc(N[C@H](CCCCNS(=O)(=O)c2ccc(N)cc2)C(=O)NO)cc(C)c1F` [Compound 167656, (R)-6-(4-Amino-benzenesulfonylamino)-2-(4-fluoro-3,5-dimethyl-phenylamino)-hexanoic acid hydroxyamide] had a pKi of 6.21.
The same measure for `CNc1ccc(S(=O)(=O)NCCCC[C@@H](Nc2cc(C)c(F)c(C)c2)C(=O)NO)cc1` [Compound 167657, (R)-2-(4-Fluoro-3,5-dimethyl-phenylamino)-6-(4-methylamino-benzenesulfonylamino)-hexanoic acid hydroxyamide]: 6.39; for `CNc1cccc(S(=O)(=O)NCCCC[C@@H](Nc2cc(C)c(F)c(C)c2)C(=O)NO)c1` [Compound 167667, (R)-2-(4-Fluoro-3,5-dimethyl-phenylamino)-6-(3-methylamino-benzenesulfonylamino)-hexanoic acid hydroxyamide]: 6.23; for `Cc1cccc(CNCCCC[C@@H](Nc2cc(C)c(F)c(C)c2)C(=O)NO)c1` [Compound 167698, (R)-2-(4-Fluoro-3,5-dimethyl-phenylamino)-6-(3-methyl-benzylamino)-hexanoic acid hydroxyamide]: 6.80.
For `Cc1cc(N[C@H](CCCCNS(=O)(=O)c2ccc(N(C)C)cc2)C(=O)NO)cc(C)c1F` [Compound 167699, (R)-6-(4-Dimethylamino-benzenesulfonylamino)-2-(4-fluoro-3,5-dimethyl-phenylamino)-hexanoic acid hydroxyamide] the value was 6.37; for `Cc1cc(N[C@H](CCCCNS(=O)(=O)c2cccc(N(C)C)c2)C(=O)NO)cc(C)c1F` [Compound 167700, (R)-6-(3-Dimethylamino-benzenesulfonylamino)-2-(4-fluoro-3,5-dimethyl-phenylamino)-hexanoic acid hydroxyamide], 6.06.
The same measure for `CCCCC(Nc1cc(Cl)cc(Cl)c1)C(=O)NO` (stereo not shown) [Compound 167718, 2-(3,5-Dichloro-phenylamino)-hexanoic acid hydroxyamide]: 4.91; for `CCCCC(Nc1cccc(C#N)c1)C(=O)NO` (stereo not shown) [Compound 167719, 2-(3-Cyano-phenylamino)-hexanoic acid hydroxyamide]: 4.31.
With `CCCCC(Nc1ccc(F)c(C#N)c1)C(=O)NO` (stereo not shown) [Compound 167720, 2-(3-Cyano-4-fluoro-phenylamino)-hexanoic acid hydroxyamide], the pKi was 4.93.
With `CCCCC(Nc1cc(C)cc(F)c1)C(=O)NO` (stereo not shown) [Compound 167722, 2-(3-Fluoro-5-methyl-phenylamino)-hexanoic acid hydroxyamide], the pKi was 4.72. Compared with the last compound, the pKi is 0.21 log units lower.
The same measure for `Cc1cc(N[C@H](CCCCNCc2ccccc2)C(=O)NO)cc(C)c1F` [Compound 167736, (R)-6-Benzylamino-2-(4-fluoro-3,5-dimethyl-phenylamino)-hexanoic acid hydroxyamide]: 6.96; for `Cc1cc(N[C@H](CCCCNCc2cccc([N+](=O)[O-])c2)C(=O)NO)cc(C)c1F` [Compound 167737, (R)-2-(4-Fluoro-3,5-dimethyl-phenylamino)-6-(3-nitro-benzylamino)-hexanoic acid hydroxyamide]: 7.15; for `Cc1cc(N[C@H](CCCCN(Cc2ccccc2)Cc2ccccc2)C(=O)NO)cc(C)c1F` [Compound 167738, (R)-6-Dibenzylamino-2-(4-fluoro-3,5-dimethyl-phenylamino)-hexanoic acid hydroxyamide]: 6.37.
The same measure for `Cc1cc(CNCCCC[C@@H](Nc2cc(C)c(F)c(C)c2)C(=O)NO)cc(C)c1F` [Compound 167759, 6-(4-Fluoro-3,5-dimethyl-benzylamino)-2-(4-fluoro-3,5-dimethyl-phenylamino)-hexanoic acid hydroxyamide]: 7.15; for `CCCCC(Nc1cc(OC)cc(OC)c1)C(=O)NO` (stereo not shown) [Compound 167772, 2-(3,5-Dimethoxy-phenylamino)-hexanoic acid hydroxyamide]: 3.59; for `CCCCC(Nc1ccc(F)c(OC)c1)C(=O)NO` (stereo not shown) [Compound 167793, 2-(4-Fluoro-3-methoxy-phenylamino)-hexanoic acid hydroxyamide]: 3.80.
For `CCCCC(Nc1cc(F)cc(F)c1)C(=O)NO` (stereo not shown) [Compound 167807, 2-(3,5-Difluoro-phenylamino)-hexanoic acid hydroxyamide], the pKi was 3.64.
For `CCCCC(Nc1cc(Br)cc(Br)c1)C(=O)NO` (stereo not shown) [Compound 167843, 2-(3,5-Dibromo-phenylamino)-hexanoic acid hydroxyamide] the value was 4.28; for `CCCCC(Nc1cc(C)cc(Br)c1)C(=O)NO` (stereo not shown) [Compound 167844, 2-(3-Bromo-5-methyl-phenylamino)-hexanoic acid hydroxyamide], 5.46.
For `Cc1cc(N[C@H](CCCCNC(=O)OC(C)(C)C)C(=O)NO)ccc1F` [Compound 167926, (R)-[5-(4-Fluoro-3-methyl-phenylamino)-5-hydroxycarbamoyl-pentyl]-carbamic acid tert-butyl ester] the value was 5.54; for `Cc1cccc(CN(CCCC[C@@H](Nc2cc(C)c(F)c(C)c2)C(=O)NO)Cc2cccc(C)c2)c1` [Compound 167932, (R)-6-[Bis-(3-methyl-benzyl)-amino]-2-(4-fluoro-3,5-dimethyl-phenylamino)-hexanoic acid hydroxyamide], 5.96; for `Cc1cc(CN(CCCC[C@@H](Nc2cc(C)c(F)c(C)c2)C(=O)NO)Cc2ccc(F)c(C)c2)ccc1F` [Compound 167933, (R)-6-[Bis-(4-fluoro-3-methyl-benzyl)-amino]-2-(4-fluoro-3,5-dimethyl-phenylamino)-hexanoic acid hydroxyamide], 5.72.
For `Cc1cc(N[C@H](CCCCNCc2ccc(F)cc2)C(=O)NO)ccc1F` [Compound 167945, (R)-6-(4-Fluoro-benzylamino)-2-(4-fluoro-3-methyl-phenylamino)-hexanoic acid hydroxyamide] the value was 7.52; for `Cc1cc(CNCCCC[C@@H](Nc2ccc(F)c(C)c2)C(=O)NO)ccc1F` [Compound 167946, (R)-6-(4-Fluoro-3-methyl-benzylamino)-2-(4-fluoro-3-methyl-phenylamino)-hexanoic acid hydroxyamide], 7.22; for `Cc1cc(N[C@H](CCCCN)C(=O)NO)ccc1F` [Compound 167949, (R)-6-Amino-2-(4-fluoro-3-methyl-phenylamino)-hexanoic acid hydroxyamide], 6.70.
`Cc1cc(N[C@H](CCCCN(Cc2ccc(F)cc2)Cc2ccc(F)cc2)C(=O)NO)ccc1F` [Compound 167963, (R)-6-[Bis-(4-fluoro-benzyl)-amino]-2-(4-fluoro-3-methyl-phenylamino)-hexanoic acid hydroxyamide] gave a pKi of 5.96.
The same measure for `Cc1cc(CN(CCCC[C@@H](Nc2ccc(F)c(C)c2)C(=O)NO)Cc2ccc(F)c(C)c2)ccc1F` [Compound 167966, (R)-6-[Bis-(4-fluoro-3-methyl-benzyl)-amino]-2-(4-fluoro-3-methyl-phenylamino)-hexanoic acid hydroxyamide]: 5.17.
For `Cc1cc(N[C@H](CCCCNCc2cc(C)c(F)c(C)c2)C(=O)NO)ccc1F` [Compound 167968, (R)-6-(4-Fluoro-3,5-dimethyl-benzylamino)-2-(4-fluoro-3-methyl-phenylamino)-hexanoic acid hydroxyamide] the value was 7.00.

(Values after US8242174B2 (priority 2007, dated 2012).)
